{"source": "paper PMC8831444", "about": "(Cancer Discovery, 2021)", "assay_type_in_all_cases": "cell-based", "key": {"CDK4 [1]": {"molecular_target": "T1, CDK4 (Homo sapiens, UniProt P11802)", "assay": "palbociclib-based degrader"}, "CDK6 [2]": {"molecular_target": "T2, CDK6 (Homo sapiens, UniProt Q00534)", "assay": "palbociclib-based degrader"}, "CDK4 [3]": {"molecular_target": "T1, CDK4", "assay": "IP-kinase assay"}, "CDK6 [4]": {"molecular_target": "T2, CDK6", "assay": "palbociclib-based degrader", "remark": "listed apart in the source"}, "CDK4 [5]": {"molecular_target": "T1, CDK4", "assay": "palbociclib-based degrader", "remark": "listed apart in the source"}}, "note": "Read-outs that look alike come from different tables or passages of the source."}
{"smiles": "CC(=O)c1c(C)c2cnc(Nc3ccc(N4CCN(CCCCC(=O)N[C@H](C(=O)N5C[C@H](O)C[C@H]5C(=O)N[C@@H](C)c5ccc(-c6scnc6C)cc5)C(C)(C)C)CC4)cn3)nc2n(C2CCCC2)c1=O", "note": "[BSJ-05-017]", "values": [{"measurement": "palbociclib-based degrader; CDK4 degradation in MCF7 cells (immunoblot)", "setting": "CDK4 [1]", "result": "~ 10 nmol/L"}, {"measurement": "palbociclib-based degrader; CDK6 degradation in MCF7 cells (immunoblot)", "setting": "CDK6 [2]", "result": "~ 10 nmol/L"}]}
{"smiles": "CCN1CCN(Cc2ccc(Nc3ncc(F)c(-c4cc(F)c5nc(C)n(C(C)C)c5c4)n3)nc2)CC1", "note": "[abemaciclib]", "values": [{"measurement": "% reduced", "setting": "CDK4 [3]", "result": 84, "unit": "% reduced"}]}
{"smiles": "CC(=O)c1c(C)c2cnc(Nc3ccc(N4CCN(CC5CCN(c6ccc7c(c6)C(=O)N(C6CCC(=O)NC6=O)C7=O)CC5)CC4)cn3)nc2n(C2CCCC2)c1=O", "note": "(centres unmarked) [BSJ-03-096]", "values": [{"measurement": "palbociclib-based degrader; CDK6 degradation in MCF7 cells (immunoblot)", "setting": "CDK6 [4]", "result": "~ 10 nmol/L"}, {"measurement": "palbociclib-based degrader; CDK4 degradation in MCF7 cells (immunoblot)", "setting": "CDK4 [5]", "result": "~ 10 nmol/L"}]}
